Test results: patent US20240294522A1 (Lead Discovery Center GmbH, priority 2021, published 2024)

Tests used:
[1] = target: T1, GRK5 (Homo sapiens, UniProt P34947); experiment: Lance Kinase Activity Assay, GRK5; conditions: biochemical Lance kinase activity assay; class symbols A-F; read-out: GRK5 LANCE Assay (IC-50)
T1 construct: purchased Thermo Scientific
In short: (§1)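 IC50s from sigmoidal dose-response over 0.0025-10 μM compound, with phosphorylated ULight substrate detected by Eu anti-phospho antibody FRET after EDTA quench.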

[2] = target: T2, GRK2 (Homo sapiens, UniProt P25098); experiment: Lance Kinase Activity Assay, GRK2; conditions: biochemical Lance kinase activity assay; class symbols A-F; read-out: GRK2 LANCE Assay (IC-50)
T2 construct: purchased Thermo Scientific
T2 sequence (P25098 1-689): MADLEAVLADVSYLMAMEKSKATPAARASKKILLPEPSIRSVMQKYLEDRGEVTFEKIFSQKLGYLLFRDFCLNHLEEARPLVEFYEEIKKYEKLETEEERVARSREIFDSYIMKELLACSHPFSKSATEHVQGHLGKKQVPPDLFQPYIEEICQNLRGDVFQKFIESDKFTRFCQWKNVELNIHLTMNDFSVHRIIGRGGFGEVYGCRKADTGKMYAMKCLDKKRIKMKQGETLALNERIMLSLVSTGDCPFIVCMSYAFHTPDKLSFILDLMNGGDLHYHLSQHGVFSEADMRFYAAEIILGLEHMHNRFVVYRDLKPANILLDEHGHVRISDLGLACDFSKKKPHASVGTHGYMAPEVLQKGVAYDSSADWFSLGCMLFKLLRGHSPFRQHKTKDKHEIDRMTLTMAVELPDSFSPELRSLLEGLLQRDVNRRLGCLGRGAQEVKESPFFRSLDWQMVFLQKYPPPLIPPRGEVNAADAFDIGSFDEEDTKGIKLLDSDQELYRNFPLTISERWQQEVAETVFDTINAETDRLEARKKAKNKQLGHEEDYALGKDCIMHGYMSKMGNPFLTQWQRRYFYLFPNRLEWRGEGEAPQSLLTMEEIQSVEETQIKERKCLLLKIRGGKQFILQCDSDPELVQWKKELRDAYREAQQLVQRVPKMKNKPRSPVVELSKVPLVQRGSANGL
In short: as §1

T1 sequence (P34947 whole entry): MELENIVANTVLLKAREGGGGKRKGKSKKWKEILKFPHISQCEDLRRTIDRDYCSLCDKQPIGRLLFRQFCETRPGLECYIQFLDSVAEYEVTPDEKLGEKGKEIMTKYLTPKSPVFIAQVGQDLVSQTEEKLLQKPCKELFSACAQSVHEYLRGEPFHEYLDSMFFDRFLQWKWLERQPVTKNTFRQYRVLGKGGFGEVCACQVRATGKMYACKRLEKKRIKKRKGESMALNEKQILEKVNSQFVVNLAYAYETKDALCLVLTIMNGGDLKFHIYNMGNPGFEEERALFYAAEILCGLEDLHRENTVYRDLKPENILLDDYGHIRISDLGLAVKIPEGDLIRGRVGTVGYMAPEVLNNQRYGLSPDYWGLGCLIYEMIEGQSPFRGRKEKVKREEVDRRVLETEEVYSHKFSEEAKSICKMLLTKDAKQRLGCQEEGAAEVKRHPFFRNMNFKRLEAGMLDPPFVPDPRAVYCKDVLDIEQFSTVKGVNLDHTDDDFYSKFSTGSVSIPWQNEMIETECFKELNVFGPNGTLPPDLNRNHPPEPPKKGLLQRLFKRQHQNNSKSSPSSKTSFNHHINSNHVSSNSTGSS

For `N#C/C(=C\c1c[nH]c2ncccc12)C(=O)NCc1ccccc1CN1CCCC1=O` [Example 44, (E)-2-cyano-N-(2-((2-oxopyrrolidin-1-yl)methyl)benzyl)-3-(1H-pyrrolo[2,3-b]pyridin-3-yl)acrylamide], the IC50 [1] was 1 to 10 µM and the IC50 [2] was 1 to 10 µM.

Work on `COc1ccc([C@@H](C)NC(=O)/C=C/c2c[nH]c3nccc(-c4ccc(N5CCN(C(C)=O)CC5)cc4)c23)cc1OC` [Example 235, (R,E)-3-(4-(4-(4-acetylpiperazin-1-yl)phenyl)-1H-pyrrolo[2,3-b]pyridin-3-yl)-N-(1-(3,4-dimethoxyphenyl)ethyl)acrylamide] yielded an IC50 [1] of 0.05 to 0.1 µM and an IC50 [2] greater than 10 µM.

`C[C@@H](NC(=O)/C(C#N)=C/c1c[nH]c2ncccc12)c1ccc(F)cc1F` [Example 17, (R,E)-2-cyano-N-(1-(2,4-difluorophenyl)ethyl)-3-(1H-pyrrolo[2,3-b]pyridin-3-yl)acrylamide] showed an IC50 [1] of 0.1 to 0.5 µM and an IC50 [2] of 0.1 to 0.5 µM.

For `COc1ccc([C@@H](C)NC(=O)/C(C#N)=C/c2c[nH]c3ncc(O[C@H]4CCOC4)cc23)cc1OC` [Example 108, (E)-2-cyano-N-((R)-1-(3,4-dimethoxyphenyl)ethyl)-3-(5-(((S)-tetrahydrofuran-3-yl)oxy)-1H-pyrrolo[2,3-b]pyridin-3-yl)acrylamide], the IC50 [1] was no more than 0.05 µM and the IC50 [2] was 1 to 10 µM.

For `N#C/C(=C\c1c[nH]c2ncccc12)C(=O)NCc1cccc(C#N)c1` [Example 31, (E)-2-cyano-N-(3-cyanobenzyl)-3-(1H-pyrrolo[2,3-b]pyridin-3-yl)acrylamide], the IC50 [1] was 0.5 to 1 µM and the IC50 [2] was 1 to 10 µM.

`COc1ccc([C@@H](C)NC(=O)/C=C/c2c[nH]c3nccc(-c4cccc(C(N)=O)c4)c23)cc1OC` [Example 233, (R,E)-3-(3-(3-((1-(3,4-dimethoxyphenyl)ethyl)amino)-3-oxoprop-1-en-1-yl)-1H-pyrrolo[2,3-b]pyridin-4-yl)benzamide] was tested, and the IC50 [1] was 0.05 to 0.1 µM and the IC50 [2] was 1 to 10 µM.

In the case of `COc1ccc([C@@H](C)NC(=O)/C=C/c2c[nH]c3nccc(-c4ccc(F)cc4OC)c23)cc1OC` [Example 229, (R,E)-N-(1-(3,4-dimethoxyphenyl)ethyl)-3-(4-(4-fluoro-2-methoxyphenyl)-1H-pyrrolo[2,3-b]pyridin-3-yl)acrylamide], the IC50 [1] is reported as 1 to 10 µM and the IC50 [2] is reported as greater than 10 µM.

In the case of `COc1ccc([C@@H](C)NC(=O)/C=C/c2c[nH]c3ncc(-c4cccc(S(N)(=O)=O)c4)cc23)cc1OC` [Example 208, (R,E)-N-(1-(3,4-dimethoxyphenyl)ethyl)-3-(5-(3-sulfamoylphenyl)-1H-pyrrolo[2,3-b]pyridin-3-yl)acrylamide], the IC50 [1] is reported as no more than 0.05 µM and the IC50 [2] is reported as 1 to 10 µM.

`N#C/C(=C\c1c[nH]c2ncccc12)C(=O)NCc1ccc(S(N)(=O)=O)cc1` [Example 21, (E)-2-cyano-3-(1H-pyrrolo[2,3-b]pyridin-3-yl)-N-(4-sulfamoylbenzyl)acrylamide] showed an IC50 [1] of 1 to 10 µM and an IC50 [2] greater than 10 µM.

`COc1cc(C(C)NC(=O)/C=C/c2c[nH]c3ncc(-c4cnn(C)c4)cc23)ccc1[S+](C)[O-]` (stereo not drawn) [Example 255, (E)-N-(1-(3-methoxy-4-(methylsulfinyl)phenyl)ethyl)-3-(5-(1-methyl-1H-pyrazol-4-yl)-1H-pyrrolo[2,3-b]pyridin-3-yl)acrylamide] showed an IC50 [1] of 0.1 to 0.5 µM and an IC50 [2] greater than 10 µM.

Molecule `COc1ccc([C@@H](C)NC(=O)/C=C/c2c[nH]c3ncc(-c4cccc(S(=O)(=O)C(F)(F)F)c4)cc23)cc1OC` [Example 264, (R,E)-N-(1-(3,4-dimethoxyphenyl)ethyl)-3-(5-(3-((trifluoromethyl)sulfonyl)phenyl)-1H-pyrrolo[2,3-b]pyridin-3-yl)acrylamide] has an IC50 [1] of no more than 0.05 µM and an IC50 [2] greater than 10 µM.

In the case of `N#C/C(=C\c1c[nH]c2ncccc12)C(=O)NCc1cccc(C(N)=O)c1` [Example 28, (E)-3-((2-cyano-3-(1H-pyrrolo[2,3-b]pyridin-3-yl)acrylamido)methyl)benzamide], the IC50 [1] is reported as 0.5 to 1 µM and the IC50 [2] is reported as 0.1 to 0.5 µM.

In the case of `CC[S+]([O-])c1cccc(-c2ccnc3[nH]cc(/C=C/C(=O)N[C@H](C)c4ccc(OC)c(OC)c4)c23)c1` (stereo partly drawn) [Example 239, (E)-N-((R)-1-(3,4-dimethoxyphenyl)ethyl)-3-(4-(3-(ethylsulfinyl)phenyl)-1H-pyrrolo[2,3-b]pyridin-3-yl)acrylamide], the IC50 [1] is reported as 0.5 to 1 µM and the IC50 [2] is reported as greater than 10 µM.

`N#C/C(=C\c1c[nH]c2ncc(Cl)cc12)C(=O)NCc1ccccc1` [Example 73, (E)-N-benzyl-3-(5-chloro-1H-pyrrolo[2,3-b]pyridin-3-yl)-2-cyanoacrylamide] was tested, and the IC50 [1] was 1 to 10 µM and the IC50 [2] was 1 to 10 µM.

`COc1ccc([C@@H](C)NC(=O)/C(C#N)=C/c2c[nH]c3ncc(Br)cc23)cc1OC` [Example 80, (R,E)-3-(5-bromo-1H-pyrrolo[2,3-b]pyridin-3-yl)-2-cyano-N-(1-(3,4-dimethoxyphenyl)ethyl)acrylamide] showed an IC50 [1] of 0.05 to 0.1 µM and an IC50 [2] greater than 10 µM.

`COc1ccc([C@@H](C)NC(=O)/C=C/c2c[nH]c3ncc(-c4cccc(S(=O)(=O)C5CC5)c4)cc23)cc1OC` [Example 216, (R,E)-3-(5-(3-(cyclopropylsulfonyl)phenyl)-1H-pyrrolo[2,3-b]pyridin-3-yl)-N-(1-(3,4-dimethoxyphenyl)ethyl)acrylamide] was tested, and the IC50 [1] was no more than 0.05 µM and the IC50 [2] was 1 to 10 µM.

In the case of `COc1ccc([C@@H](C)NC(=O)/C(C#N)=C/c2c[nH]c3ncc(-c4ccc(C(N)=O)cc4)cc23)cc1OC` [Example 126, (R,E)-4-(3-(2-cyano-3-((1-(3,4-dimethoxyphenyl)ethyl)amino)-3-oxoprop-1-en-1-yl)-1H-pyrrolo[2,3-b]pyridin-5-yl)benzamide], the IC50 [1] is reported as 0.05 to 0.1 µM and the IC50 [2] is reported as greater than 10 µM.

With `COc1ccc([C@@H](C)NC(=O)/C(C#N)=C\c2c[nH]c3ncc(-c4ccc(C#N)cc4)cc23)cc1OC` [Example 140, (R,Z)-2-cyano-3-(5-(4-cyanophenyl)-1H-pyrrolo[2,3-b]pyridin-3-yl)-N-(1-(3,4-dimethoxyphenyl)ethyl)acrylamide] the IC50 [1] was no more than 0.05 µM and the IC50 [2] was greater than 10 µM.

For `COc1ccc([C@@H](C)NC(=O)/C(C#N)=C/c2c[nH]c3ncc(C(=O)N4CCN(C)CC4)cc23)cc1OC` [Example 83, (R,E)-2-cyano-N-(1-(3,4-dimethoxyphenyl)ethyl)-3-(5-(4-methylpiperazine-1-carbonyl)-1H-pyrrolo[2,3-b]pyridin-3-yl)acrylamide], the IC50 [1] was 0.1 to 0.5 µM and the IC50 [2] was greater than 10 µM.

With `COc1ccc([C@@H](C)NC(=O)/C=C/c2c[nH]c3nccc(-c4ccc(C5CCN(C)CC5)cc4)c23)cc1OC` [Example 240, (R,E)-N-(1-(3,4-dimethoxyphenyl)ethyl)-3-(4-(4-(1-methylpiperidin-4-yl)phenyl)-1H-pyrrolo[2,3-b]pyridin-3-yl)acrylamide] the IC50 [1] was 0.05 to 0.1 µM and the IC50 [2] was 1 to 10 µM.

For `Cc1nn(C)c2cc([C@@H](C)NC(=O)/C(C#N)=C/c3c[nH]c4ncc(-c5cnn(C)c5)cc34)ccc12` [Example 261, (R,E)-2-cyano-N-(1-(1,3-dimethyl-1H-indazol-6-yl)ethyl)-3-(5-(1-methyl-1H-pyrazol-4-yl)-1H-pyrrolo[2,3-b]pyridin-3-yl)acrylamide], the IC50 [1] was no more than 0.05 µM and the IC50 [2] was greater than 10 µM.

`COc1ccc([C@@H](C)NC(=O)/C(C#N)=C/c2c[nH]c3ncc(-c4ccccc4CN(C)C)cc23)cc1OC` [Example 136] was tested, and the IC50 [1] was 0.1 to 0.5 µM and the IC50 [2] was greater than 10 µM.

In the case of `COc1cc(C(C)NC(=O)/C(C#N)=C/c2c[nH]c3ncc(-c4cnn(C)c4)cc23)ccc1[S+](C)[O-]` (stereo not drawn) [Example 256, (E)-2-cyano-N-(1-(3-methoxy-4-(methylsulfinyl)phenyl)ethyl)-3-(5-(1-methyl-1H-pyrazol-4-yl)-1H-pyrrolo[2,3-b]pyridin-3-yl)acrylamide], the IC50 [1] is reported as 0.05 to 0.1 µM and the IC50 [2] is reported as 1 to 10 µM.

In the case of `COc1ccc([C@@H](C)NC(=O)/C(C#N)=C/c2c[nH]c3ncc(-c4ccc(CCN(C)C)cc4)cc23)cc1OC` [Example 134], the IC50 [1] is reported as no more than 0.05 µM and the IC50 [2] is reported as 1 to 10 µM.

Molecule `COc1cccc(-c2cnc3[nH]cc(/C=C(\C#N)C(=O)N[C@H](C)c4ccc(OC)c(OC)c4)c3c2)c1` [Example 137, (R,E)-2-cyano-N-(1-(3,4-dimethoxyphenyl)ethyl)-3-(5-(3-methoxyphenyl)-1H-pyrrolo[2,3-b]pyridin-3-yl)acrylamide] has an IC50 [1] of no more than 0.05 µM and an IC50 [2] greater than 10 µM.

For `COc1ccc([C@@H](C)NC(=O)/C(C#N)=C/c2c[nH]c3ncc(OCc4cc(C)nn4C)cc23)cc1OC` [Example 101, (R,E)-2-cyano-N-(1-(3,4-dimethoxyphenyl)ethyl)-3-(5-((1,3-dimethyl-1H-pyrazol-5-yl)methoxy)-1H-pyrrolo[2,3-b]pyridin-3-yl)acrylamide], the IC50 [1] was 0.05 to 0.1 µM and the IC50 [2] was greater than 10 µM.

Molecule `COc1ccc([C@@H](C)NC(=O)/C(C#N)=C/c2c[nH]c3ncc(OC(C)C)cc23)cc1OC` [Example 102, (R,E)-2-cyano-N-(1-(3,4-dimethoxyphenyl)ethyl)-3-(5-isopropoxy-1H-pyrrolo[2,3-b]pyridin-3-yl)acrylamide] has an IC50 [1] of no more than 0.05 µM and an IC50 [2] greater than 10 µM.
